Results from patent publication EP0590919A1, “Therapeutic agents for parkinson's disease” (KYOWA HAKKO KOGYO CO., LTD., priority 1992, dated 1994).

How the values were obtained:
dd-strain male mice = assay: Acute toxicity test (minimum lethal dose, oral); type: in vivo; settings: oral administration, three mice per group, mortality seven days after administration
Experimental: Test compounds were orally administered to groups of dd-strain male mice weighing 20 ± 1 g, each group consisting of three mice. Seven days after the administration, minimum lethal dose (MLD) of each compound was determined by observing the mortality.

A₂ receptor = target: T1, A₂ receptor (Rattus norvegicus, UniProt P30543); assay: Adenosine A₂ receptor binding test (³H-CGS 21680 binding); settings: [^3H]CGS 21680 was used, rat corpus striatum, read-out: A2 Receptor Inhibition (%); for inhibition at 1 µM: 10^-6M; for inhibition at 0.1 µM: 10^-7M
T1 construct: from tissue; host or cells: rat corpus striatum membrane preparation
Experimental: The similar procedure as in the above-described adenosine A₁ receptor binding test was repeated using rat corpus striatum to obtain the final precipitate of the tissue thereof. The precipitate was suspended in 50 mM Tris HCl buffer containing 10 mM magnesium chloride and 0.02 unit/mg tissue of adenosine deaminase (manufactured by Sigma Co.) to give a tissue concentration of 5 mg (wet weight)/ml.
The similar procedure as above was repeated to determine the radioactivity bound to the A₂ receptors using 50 µl of CGS 21680 labeled with tritium [³H-2-[p-(2-carboxyethyl)-phenethylamino]-5'-(N-ethylcarboxamide)adenosine: 40 Ci/mmol, manufactured by New England Nuclear Co. (J. Pharmacol. Exp. Ther., 251, 888 (1989)] (final concentration: 4.0 nM) in place of 50 µl of the mixture of N-ethylcarboxamidoadenosine labeled with tritium (³H-NECA: 26 Ci/mmol, manufactured by Amersham Co.) (final concentration: 3.8 nM) and cyclopentyladenosine (CPA, manufactured by Sigma Co.) (final concentration: 50 nM).
The inhibition rate of the test compound against the binding of A₂ receptors (³H-CGS 21680 binding) was calculated by the following equation: [formula] [Notes] • 1. "B" means the amount of radioactivity of ³H-CGS 21680 bound in the presence of a test compound at a concentration shown in Table 4. • 2. "T" means the amount of radioactivity of ³H-CGS 21680 bound in the absence of a test compound. • 3. "N" means the amount of radioactivity of ³H-CGS 21680 bound in the presence of 100 µM CPA.

T1 sequence (P30543 whole entry): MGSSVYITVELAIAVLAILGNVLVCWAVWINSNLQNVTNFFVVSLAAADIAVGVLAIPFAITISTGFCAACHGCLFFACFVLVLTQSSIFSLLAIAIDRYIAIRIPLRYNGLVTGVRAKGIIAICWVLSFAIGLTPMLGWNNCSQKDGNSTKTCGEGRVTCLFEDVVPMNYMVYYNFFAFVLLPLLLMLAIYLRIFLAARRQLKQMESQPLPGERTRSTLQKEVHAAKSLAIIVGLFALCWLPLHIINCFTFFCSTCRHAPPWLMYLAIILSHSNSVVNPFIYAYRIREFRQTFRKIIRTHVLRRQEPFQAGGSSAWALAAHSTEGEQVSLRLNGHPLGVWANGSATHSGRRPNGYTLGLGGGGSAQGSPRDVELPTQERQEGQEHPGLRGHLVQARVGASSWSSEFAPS

Structure (SMILES)	MLD (dd-strain male mice) [mg/kg]	inhibition at 1 µM (A₂ receptor) [%]	inhibition at 0.1 µM (A₂ receptor) [%]
CCn1c(=O)c2[nH]c(/C=C/c3ccc(Br)cc3)nc2n(CC)c1=O [Compound 77, (E)-8-(4-Bromostyryl)-1,3-diethylxanthine]	> 100	54	54
CCn1c(=O)c2c(nc(/C=C/c3ccccc3F)n2C)n(CC)c1=O [Compound 98, (E)-1,3-Diethyl-8-(2-fluorostyryl)-7-methylxanthine]	> 100	95	92
CCn1c(=O)c2[nH]c(/C=C/c3cc(F)cc(F)c3)nc2n(CC)c1=O [Compound 87, (E)-8-(3,5-Difluorostyryl)-1,3-diethylxanthine]	> 100	66	59
CCn1c(=O)c2[nH]c(/C=C/c3cc(OC)c4c(c3)OCO4)nc2n(CC)c1=O [Compound 106, (E)-1,3-Diethyl-8-(3-methoxy-4,5-methylenedioxystyryl)xanthine]	> 100	94	83
CCn1c(=O)c2c(nc(/C=C/c3cccc(Oc4ccccc4)c3)n2C)n(CC)c1=O [Compound 120, (E)-1,3-Diethyl-7-methyl-8-(3-phenoxystyryl)xanthine]	> 100	75	89
CCn1c(=O)c2c(nc(/C=C/c3ccc(C(F)(F)F)cc3)n2C)n(CC)c1=O [Compound 74, (E)-1,3-Diethyl-7-methyl-8-(4-trifluoromethylstyryl)xanthine]	> 300	87	59
CCn1c(=O)c2[nH]c(/C=C/c3cc4c(cc3Br)OCO4)nc2n(CC)c1=O [Compound 95, (E)-8-(2-Bromo-4,5-methylenedioxystyryl)-1,3-diethylxanthine]	> 100	89	75
CCn1c(=O)c2[nH]c(/C=C/c3cccc(OC(F)(F)F)c3)nc2n(CC)c1=O [Compound 79, (E)-1,3-Diethyl-8-(3-trifluoromethoxystyryl)xanthine]	> 100	79	53
CCn1c(=O)c2[nH]c(/C=C/c3ccccc3F)nc2n(CC)c1=O [Compound 97, (E)-1,3-Diethyl-8-(2-fluorostyryl)xanthine]	> 100	87	66
CCn1c(=O)c2c(nc(/C=C/c3ccc(-c4ccccc4)cc3)n2C)n(CC)c1=O [Compound 101, (E)-1,3-Diethyl-7-methyl-8-(4-phenylstyryl)xanthine]	> 100	76	36
CCCCOc1ccc(/C=C/c2nc3c(c(=O)n(CC)c(=O)n3CC)n2C)cc1 [Compound 42, (E)-8-(4-Butoxystyryl)-1,3-diethyl-7-methylxanthine]	> 100	87	46
CCn1c(=O)c2[nH]c(/C=C/c3ccc(F)cc3)nc2n(CC)c1=O [Compound 83, (E)-1,3-Diethyl-8-(4-fluorostyryl)xanthine]	> 100	70	75
CCn1c(=O)c2[nH]c(/C=C/c3ccc(OC)c(F)c3)nc2n(CC)c1=O [Compound 102, (E)-1,3-Diethyl-8-(3-fluoro-4-methoxystyryl)xanthine]	> 100	94	70
CCn1c(=O)c2c(nc(/C=C/c3cccc(C(F)(F)F)c3)n2C)n(CC)c1=O [Compound 94, (E)-1,3-Diethyl-7-methyl-8-(3-trifluoromethylstyryl)xanthine]	> 100	98	71
CCn1c(=O)c2[nH]c(/C=C/c3cccc(OC)c3)nc2n(CC)c1=O [Compound 39, (E)-1,3-Diethyl-8-(3-methoxystyryl)xanthine]	> 100	88	80
CCn1c(=O)c2c(nc(/C=C/c3cc4c(cc3Br)OCO4)n2C)n(CC)c1=O [Compound 96, (E)-8-(2-Bromo-4,5-methylenedioxystyryl)-1,3-diethyl-7-methylxanthine]	> 100	101	84
CCn1c(=O)c2[nH]c(/C=C/c3ccc(OCOC)cc3)nc2n(CC)c1=O [Compound 81, (E)-1,3-Diethyl-8-(4-methoxymethoxystyryl)xanthine]	> 100	95	78
CCn1c(=O)c2c(nc(/C=C/c3ccc(OCCCCBr)cc3)n2C)n(CC)c1=O [Compound 114, (E)-8-[4-(4-Bromobutoxy)styryl]-1,3-diethyl-7-methylxanthine]	> 100	87	23
CCn1c(=O)c2[nH]c(/C=C/c3ccc(C)cc3)nc2n(CC)c1=O [Compound 43, (E)-1,3-Diethyl-8-(4-methylstyryl)xanthine]	> 100	70	68
CCn1c(=O)c2c(nc(/C=C/c3ccc(F)c(Cl)c3)n2C)n(CC)c1=O [Compound 105, (E)-8-(3-Chloro-4-fluorostyryl)-1,3-diethyl-7-methylxanthine]	> 100	96	76
CCn1c(=O)c2c(nc(/C=C/c3ccc(OCCCCN=[N+]=[N-])cc3)n2C)n(CC)c1=O [Compound 115, (E)-8-[4-(4-Azidobutoxy)styryl]-1,3-diethyl-7-methylxanthine]	> 100	79	34
CCn1c(=O)c2c(nc(/C=C/c3ccc(OC)c(C)c3)n2C)n(CC)c1=O [Compound 48, (E)-1,3-Diethyl-8-(4-methoxy-3-methylstyryl)-7-methylxanthine]	> 100	99	83
CCn1c(=O)c2[nH]c(/C=C/c3cccc(C(F)(F)F)c3)nc2n(CC)c1=O [Compound 93, (E)-1,3-Diethyl-8-(3-trifluoromethylstyryl)xanthine]	> 100	85	53
CCn1c(=O)c2c(nc(/C=C/c3cccc(OC(F)(F)F)c3)n2C)n(CC)c1=O [Compound 80, (E)-1,3-Diethyl-7-methyl-8-(3-trifluoromethoxystyryl)xanthine]	> 100	86	72
CCn1c(=O)c2[nH]c(/C=C/c3cccc(F)c3C)nc2n(CC)c1=O [Compound 108, (E)-1,3-Diethyl-8-(3-fluoro-2-methylstyryl)xanthine]	> 100	94	87
CCCCOc1ccc(/C=C/c2nc3c([nH]2)c(=O)n(CC)c(=O)n3CC)cc1 [Compound 41, (E)-8-(4-Butoxystyryl)-1,3-diethylxanthine]	> 100	52	27
CCn1c(=O)c2[nH]c(/C=C/c3cccc(Br)c3)nc2n(CC)c1=O [Compound 91, (E)-8-(3-Bromostyryl)-1,3-diethylxanthine]	> 100	51	9
CCn1c(=O)c2[nH]c(/C=C/c3ccc(OC)c(C)c3)nc2n(CC)c1=O [Compound 47, (E)-1,3-Diethyl-8-(4-methoxy-3-methylstyryl)xanthine]	> 100	92	67
CCn1c(=O)c2[nH]c(/C=C/c3cccc([N+](=O)[O-])c3)nc2n(CC)c1=O [Compound 89, (E)-1,3-Diethyl-8-(3-nitrostyryl)xanthine]	> 100	78	59
